Data reported in patent publication US9738634B2, “Heterocyclic amide compound and herbicide” (SYNGENTA PARTICIPATIONS AG, priority 2013, dated 2017).

Legend:
Assay type in all cases: in vivo
barnyard grass [1] = assay: Test Example 1: weedkilling efficacy, preemergent weed treatment in the submerged state; A: barnyard grass
Description: (§1) Weedkilling efficacy test on preemergent weed treatment in the submerged state
(§2) Alluvial soil was introduced into 1/10,000 Are Wagner pots, and 4 cm depth submerged conditions were created by addition of water and mixing. Seeds of barnyard grass, bulrush and oval-leafed pondweed were mixed and sown into the aforesaid cups, then 2.5 leaf stage rice seedlings were transplanted. On the sowing day, emulsions of compounds of the present invention prepared according to compounding example 2 were diluted with water to give the specified dosages and applied onto the water surface. The plants were grown after placing the cups in a greenhouse at 25 to 30° C. 3 weeks after the pesticide treatment the effect on each type of plant was investigated on the basis of the following assessment criteria.
(§3) A: barnyard grass, B: bulrush, C: oval-leafed pondweed, D: crabgrass, E: green foxtail, F: barnyard grass, G: wild oat, H: black-grass, I: Italian ryegrass, J: common wind-grass, K: Indian mallow, L: redroot pigweed, M: fig-leafed goosefoot, N: chickweed, O: catchweed, p: birds-eye speedwell, a: transplanted rice, b: directly sown rice, c: corn, d: soybean, e: wheat, f: beet, g: rapeseed
(§4) Further, pesticide dosage (g/ha) indicates the concentration regulated such that treatment was with only the stated number of grams (g), when calculated per hectare (ha).

bulrush [2] = assay: Test Example 1: weedkilling efficacy, preemergent weed treatment in the submerged state; B: bulrush
Description: as §1, §2, §3, §4

oval-leafed pondweed [3] = assay: Test Example 1: weedkilling efficacy, preemergent weed treatment in the submerged state; C: oval-leafed pondweed
Description: as §1, §2, §3, §4

transplanted rice = assay: Test Example 1: preemergent weed treatment in the submerged state, effect on crop; a: transplanted rice
Description: as §1, §2, §3, §4

barnyard grass [4] = assay: Test Example 2: weedkilling efficacy, growth period weed treatment in the submerged state; A: barnyard grass
Experimental: (§5) Weedkilling efficacy test on growth period weed treatment in the submerged state
as §2, with “and the plants were grown by placing in a greenhouse at 25 to 30° C. When the barnyard grass, bulrush and oval-leafed pondweed had reached the 1-2” for “then 2.5”, “stage,” for “stage rice seedlings were transplanted. On the sowing day,”, “surface.” for “surface. The plants were grown after placing the cups in a greenhouse at 25 to 30° C.”, “the” for “the following”, “criteria of test example 1.” for “criteria.”
as §3, §4

bulrush [5] = assay: Test Example 2: weedkilling efficacy, growth period weed treatment in the submerged state; B: bulrush
Experimental: as §5
as §2, with “and the plants were grown by placing in a greenhouse at 25 to 30° C. When the barnyard grass, bulrush and oval-leafed pondweed had reached the 1-2” for “then 2.5”, “stage,” for “stage rice seedlings were transplanted. On the sowing day,”, “surface.” for “surface. The plants were grown after placing the cups in a greenhouse at 25 to 30° C.”, “the” for “the following”, “criteria of test example 1.” for “criteria.”
as §3, §4

oval-leafed pondweed [6] = assay: Test Example 2: weedkilling efficacy, growth period weed treatment in the submerged state; C: oval-leafed pondweed
Experimental: as §5
as §2, with “and the plants were grown by placing in a greenhouse at 25 to 30° C. When the barnyard grass, bulrush and oval-leafed pondweed had reached the 1-2” for “then 2.5”, “stage,” for “stage rice seedlings were transplanted. On the sowing day,”, “surface.” for “surface. The plants were grown after placing the cups in a greenhouse at 25 to 30° C.”, “the” for “the following”, “criteria of test example 1.” for “criteria.”
as §3, §4

| SMILES | A: barnyard grass, weed kill grade (barnyard grass [1]; treatment dosage 320 g/ha) | B: bulrush, weed kill grade (bulrush [2]; treatment dosage 320 g/ha) | C: oval-leafed pondweed, weed kill grade (oval-leafed pondweed [3]; treatment dosage 320 g/ha) | a: transplanted rice, effect on crop grade (transplanted rice; treatment dosage 320 g/ha) | A (barnyard grass) weedkilling efficacy grade (barnyard grass [4]; treatment dosage 320 g/ha) | B (bulrush) weedkilling efficacy grade (bulrush [5]; treatment dosage 320 g/ha) | A: barnyard grass, weed kill grade (barnyard grass [1]; treatment dosage 252 g/ha) | B: bulrush, weed kill grade (bulrush [2]; treatment dosage 252 g/ha) | C: oval-leafed pondweed, weed kill grade (oval-leafed pondweed [3]; treatment dosage 252 g/ha) | a: transplanted rice, effect on crop grade (transplanted rice; treatment dosage 252 g/ha) | also measured |
| --- | --- | --- | --- | --- | --- | --- | --- | --- | --- | --- | --- |
| CC(C(=O)Nc1cc(Cl)cc(Cl)n1)N1COCN(c2ccccc2)C1=O (racemic) [A-7-01] | – | – | – | – | – | – | – | – | – | – | A: barnyard grass, weed kill grade (barnyard grass [1]; treatment dosage 1000 g/ha): 5 (weed kill ratio 90% or more, (practically complete withering)); B: bulrush, weed kill grade (bulrush [2]; treatment dosage 1000 g/ha): 5 (weed kill ratio 90% or more, (practically complete withering)); C: oval-leafed pondweed, weed kill grade (oval-leafed pondweed [3]; treatment dosage 1000 g/ha): 4 (weed kill ratio 70% or more, less than 90%); a: transplanted rice, effect on crop grade (transplanted rice; treatment dosage 1000 g/ha): 0 (weed kill ratio 5% or less (practically no effect)); A (barnyard grass) weedkilling efficacy grade (barnyard grass [4]; treatment dosage 1000 g/ha): 3 (weed kill ratio 40% or more, less than 70%); B (bulrush) weedkilling efficacy grade (bulrush [5]; treatment dosage 1000 g/ha): 5 (weed kill ratio 90% or more, (practically complete withering)); C (oval-leafed pondweed) weedkilling efficacy grade (oval-leafed pondweed [6]; treatment dosage 1000 g/ha): 1 (weed kill ratio 5% or more, less than 20%) |
| Cn1ccc(NC(=O)C(C)(C)N2COCN(c3ccccc3)C2=O)n1 [A-1-03] | 0 (weed kill ratio 5% or less (practically no effect)) | 5 (weed kill ratio 90% or more, (practically complete withering)) | 2 (weed kill ratio 20% or more, less than 40%) | 0 (weed kill ratio 5% or less (practically no effect)) | 0 (weed kill ratio 5% or less (practically no effect)) | 2 (weed kill ratio 20% or more, less than 40%) | – | – | – | – | C (oval-leafed pondweed) weedkilling efficacy grade (oval-leafed pondweed [6]; treatment dosage 320 g/ha): 0 (weed kill ratio 5% or less (practically no effect)) |
| CC(C)(C(=O)Nc1ncc([N+](=O)[O-])s1)N1COCN(c2ccccc2)C1=O [A-1-09] | 5 (weed kill ratio 90% or more, (practically complete withering)) | 5 (weed kill ratio 90% or more, (practically complete withering)) | 4 (weed kill ratio 70% or more, less than 90%) | 0 (weed kill ratio 5% or less (practically no effect)) | 4 (weed kill ratio 70% or more, less than 90%) | 5 (weed kill ratio 90% or more, (practically complete withering)) | – | – | – | – | C (oval-leafed pondweed) weedkilling efficacy grade (oval-leafed pondweed [6]; treatment dosage 320 g/ha): 5 (weed kill ratio 90% or more, (practically complete withering)) |
| CC(C)(C(=O)Nc1nnc(C(F)(F)F)s1)N1COCN(c2ccccc2)C1=O [A-1-14] | 4 (weed kill ratio 70% or more, less than 90%) | 5 (weed kill ratio 90% or more, (practically complete withering)) | 3 (weed kill ratio 40% or more, less than 70%) | 1 (weed kill ratio 5% or more, less than 20%) | 2 (weed kill ratio 20% or more, less than 40%) | 5 (weed kill ratio 90% or more, (practically complete withering)) | – | – | – | – | C (oval-leafed pondweed) weedkilling efficacy grade (oval-leafed pondweed [6]; treatment dosage 320 g/ha): 2 (weed kill ratio 20% or more, less than 40%) |
| CSc1nc(NC(=O)C(C)(C)N2COCN(c3ccccc3)C2=O)ns1 [A-1-17] | 2 (weed kill ratio 20% or more, less than 40%) | 5 (weed kill ratio 90% or more, (practically complete withering)) | 3 (weed kill ratio 40% or more, less than 70%) | 0 (weed kill ratio 5% or less (practically no effect)) | 0 (weed kill ratio 5% or less (practically no effect)) | 4 (weed kill ratio 70% or more, less than 90%) | – | – | – | – | C (oval-leafed pondweed) weedkilling efficacy grade (oval-leafed pondweed [6]; treatment dosage 320 g/ha): 2 (weed kill ratio 20% or more, less than 40%) |
| CC(C)(C(=O)Nc1nc(Cl)cc(Cl)n1)N1COCN(c2ccccc2)C1=O [A-1-19] | – | – | – | – | – | – | 2 (weed kill ratio 20% or more, less than 40%) | 3 (weed kill ratio 40% or more, less than 70%) | 2 (weed kill ratio 20% or more, less than 40%) | 0 (weed kill ratio 5% or less (practically no effect)) | A (barnyard grass) weedkilling efficacy grade (barnyard grass [4]; treatment dosage 252 g/ha): 3 (weed kill ratio 40% or more, less than 70%); B (bulrush) weedkilling efficacy grade (bulrush [5]; treatment dosage 252 g/ha): 2 (weed kill ratio 20% or more, less than 40%); C (oval-leafed pondweed) weedkilling efficacy grade (oval-leafed pondweed [6]; treatment dosage 252 g/ha): 2 (weed kill ratio 20% or more, less than 40%) |
| CC(C)(C(=O)Nc1nc(Cl)ccc1Cl)N1COCN(c2ccccc2)C1=O [A-2-16] | – | – | – | – | – | – | 0 (weed kill ratio 5% or less (practically no effect)) | 5 (weed kill ratio 90% or more, (practically complete withering)) | 2 (weed kill ratio 20% or more, less than 40%) | 0 (weed kill ratio 5% or less (practically no effect)) | – |
| CC(C)(C(=O)Nc1cc(Cl)cc(Cl)n1)N1COCN(c2ccccc2)C1=O [A-2-17] | – | – | – | – | – | – | 5 (weed kill ratio 90% or more, (practically complete withering)) | 5 (weed kill ratio 90% or more, (practically complete withering)) | 5 (weed kill ratio 90% or more, (practically complete withering)) | 3 (weed kill ratio 40% or more, less than 70%) | A (barnyard grass) weedkilling efficacy grade (barnyard grass [4]; treatment dosage 252 g/ha): 5 (weed kill ratio 90% or more, (practically complete withering)); B (bulrush) weedkilling efficacy grade (bulrush [5]; treatment dosage 252 g/ha): 5 (weed kill ratio 90% or more, (practically complete withering)); C (oval-leafed pondweed) weedkilling efficacy grade (oval-leafed pondweed [6]; treatment dosage 252 g/ha): 5 (weed kill ratio 90% or more, (practically complete withering)) |
| COC(=O)c1ccnc(NC(=O)C(C)(C)N2COCN(c3ccccc3)C2=O)c1 [A-2-47] | 2 (weed kill ratio 20% or more, less than 40%) | 4 (weed kill ratio 70% or more, less than 90%) | 0 (weed kill ratio 5% or less (practically no effect)) | 0 (weed kill ratio 5% or less (practically no effect)) | – | – | – | – | – | – | – |
| COc1ccnc(NC(=O)C(C)(C)N2COCN(c3ccccc3)C2=O)c1 [A-2-51] | – | – | – | – | – | – | 4 (weed kill ratio 70% or more, less than 90%) | 5 (weed kill ratio 90% or more, (practically complete withering)) | 2 (weed kill ratio 20% or more, less than 40%) | 0 (weed kill ratio 5% or less (practically no effect)) | – |
| COc1cc(C(F)(F)F)cc(NC(=O)C(C)(C)N2COCN(c3ccccc3)C2=O)n1 [A-2-59] | 5 (weed kill ratio 90% or more, (practically complete withering)) | 5 (weed kill ratio 90% or more, (practically complete withering)) | 5 (weed kill ratio 90% or more, (practically complete withering)) | 1 (weed kill ratio 5% or more, less than 20%) | – | – | – | – | – | – | – |
| Cc1cnc(Cl)c(NC(=O)C(C)(C)N2COCN(c3ccccc3)C2=O)c1 [A-3-09] | – | – | – | – | – | – | 2 (weed kill ratio 20% or more, less than 40%) | 4 (weed kill ratio 70% or more, less than 90%) | 0 (weed kill ratio 5% or less (practically no effect)) | 1 (weed kill ratio 5% or more, less than 20%) | – |
| COc1ccc(N2COCN(C(C)(C)C(=O)Nc3cc(C(F)(F)F)ccn3)C2=O)cc1Cl [A-6-05] | 2 (weed kill ratio 20% or more, less than 40%) | 2 (weed kill ratio 20% or more, less than 40%) | 2 (weed kill ratio 20% or more, less than 40%) | 0 (weed kill ratio 5% or less (practically no effect)) | – | – | – | – | – | – | – |
| Cc1ccc(N2COCN(C(C)(C)C(=O)Nc3cc(C(F)(F)F)ccn3)C2=O)cc1 [A-6-09] | 4 (weed kill ratio 70% or more, less than 90%) | 5 (weed kill ratio 90% or more, (practically complete withering)) | 4 (weed kill ratio 70% or more, less than 90%) | 0 (weed kill ratio 5% or less (practically no effect)) | 3 (weed kill ratio 40% or more, less than 70%) | 3 (weed kill ratio 40% or more, less than 70%) | – | – | – | – | – |
| CC1=C(c2ccnc(F)c2)C(=O)N(C(C)(C)C(=O)Nc2cccc(Cl)n2)CO1 [B-2-21] | – | – | – | – | – | – | – | – | – | – | A (barnyard grass) weedkilling efficacy grade (barnyard grass [1]; treatment dosage 252 g/ha): 0 (weed kill ratio 5% or less (practically no effect)); B (bulrush) weedkilling efficacy grade (bulrush [2]; treatment dosage 252 g/ha): 5 (weed kill ratio 90% or more, (practically complete withering)); C (oval-leafed pondweed) weedkilling efficacy grade (oval-leafed pondweed [3]; treatment dosage 252 g/ha): 3 (weed kill ratio 40% or more, less than 70%); a (transplanted rice) effect on crop grade (transplanted rice; treatment dosage 252 g/ha): 0 (weed kill ratio 5% or less (practically no effect)) |
| CC1=C(c2cncnc2)C(=O)N(C(C)(C)C(=O)Nc2cccc(Cl)n2)CO1 [B-2-22] | – | – | – | – | – | – | – | – | – | – | A (barnyard grass) weedkilling efficacy grade (barnyard grass [1]; treatment dosage 1000 g/ha): 3 (weed kill ratio 40% or more, less than 70%); B (bulrush) weedkilling efficacy grade (bulrush [2]; treatment dosage 1000 g/ha): 3 (weed kill ratio 40% or more, less than 70%); C (oval-leafed pondweed) weedkilling efficacy grade (oval-leafed pondweed [3]; treatment dosage 1000 g/ha): 1 (weed kill ratio 5% or more, less than 20%); a (transplanted rice) effect on crop grade (transplanted rice; treatment dosage 1000 g/ha): 0 (weed kill ratio 5% or less (practically no effect)) |
